These results are taken from patent publication US20050148656A1, “Carboxylic derivates” (priority 2003, published 2005).

Broadly, the EC50 is the midpoint of the concentration-response curve. A higher EC50 goes with a less potent agent.

One experiment deals with T1, human PPARα (Homo sapiens, UniProt Q07869).
T1 construct: expressed in transfected cells
T1 sequence (Q07869 1-468): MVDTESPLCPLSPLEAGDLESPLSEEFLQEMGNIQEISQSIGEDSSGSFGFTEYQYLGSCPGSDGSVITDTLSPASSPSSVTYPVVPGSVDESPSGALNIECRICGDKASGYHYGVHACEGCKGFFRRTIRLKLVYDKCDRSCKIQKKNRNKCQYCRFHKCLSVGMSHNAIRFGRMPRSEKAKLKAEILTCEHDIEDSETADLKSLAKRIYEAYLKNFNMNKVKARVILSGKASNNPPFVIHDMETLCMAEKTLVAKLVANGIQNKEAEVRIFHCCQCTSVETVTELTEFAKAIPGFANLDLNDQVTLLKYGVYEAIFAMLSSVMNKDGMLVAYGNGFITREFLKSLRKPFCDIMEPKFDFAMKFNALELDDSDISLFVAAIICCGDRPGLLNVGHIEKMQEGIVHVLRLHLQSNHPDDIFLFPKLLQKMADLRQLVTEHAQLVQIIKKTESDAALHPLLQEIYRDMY
Description: Luciferase reporter assay in transiently transfected cells, PPARα activation. The experiment is classed as cell-based. To be noted: 50% of maximal activation obtained by reference compound (ETYA); about 24 hours exposure. The procedure: (§1) The compounds of the invention were tested in the assays described in WO 03/051821.
(§2) Stock solutions of compounds in DMSO were diluted in appropriate concentration ranges in master plates. From master plates, compounds were diluted in culture media to obtain test compound solutions for final doses.
(§3) After adjustment of the amount of cell medium to 75 μl in each well, 50 μl test compound solution was added. Transiently transfected cells were exposed to compounds for about 24 hours before the luciferase detection assay was performed. For luciferase assays, 100 μl of assay reagent was added manually to each well and plates were left for approximately 20 minutes in order to allow lysis of the cells. After lysis, luciferase activity was measured in a 1420 Multiwell counter, Victor, from Wallach.
(§4) The TZD pioglitazone was used as reference substance for activation of both human and murine PPARγ. 5,8,11,14-Eicosatetrayonic acid (ETYA) was used as reference substance for human PPARα.
(§5) For calculation of EC50 values, a concentration-effect curve was established. Values used were derived from the average of two or three independent measurements (after subtraction of the background average value) and were expressed as the percentage of the maximal activation obtained by the reference compound. Values were plotted against the logarithm of the test compound concentration. EC50 values were estimated by linear […] between the data points and calculating the concentration required to achieve 50% of the maximal activation obtained by the reference compound.
A general note: Reporter assays use an easily measured gene product as a stand-in for the process of interest.

A further experiment deals with PPARγ. Description: Luciferase reporter assay in transiently transfected cells, PPARγ activation. The format is cell-based, human and murine. As for the experimental part:
as §1, §2, §3, §4, §5

Compound `CCO[C@@H](Cc1ccc(OCC(=O)N(Cc2ccc(Cl)cc2)Cc2ccc(C(C)(C)C)cc2)cc1)C(=O)O` [Example 13, (2S)-3-(4-{2-[(4-tert-Butylbenzyl)(4-chlorobenzyl)amino]-2-oxoethoxy}phenyl)-2-ethoxypropanoic acid] returned a 50% effective concentration (EC50) on human PPARα of 8 nM. In the experiment with PPARγ, the “ratio EC50 (PPARγ):EC50 (PPARα)” value is reported as above 400.

With `CCO[C@@H](Cc1ccc(OCC(=O)N(Cc2ccc(Cl)cc2)Cc2ccc(Cl)cc2)cc1)C(=O)O` [Example 12, (2S)-3-(4-{2-[bis(4-Chlorobenzyl)amino]-2-oxoethoxy}phenyl)-2-ethoxypropanoic acid], on human PPARα, the concentration for a half-maximal effect (EC50) worked out at 3 nM. Moreover, the “ratio EC50 (PPARγ):EC50 (PPARα)” value with PPARγ is recorded as above 1000.

Consider `CCO[C@@H](Cc1ccc(OCC(=O)N(Cc2ccc(C(F)(F)F)cc2)Cc2ccc(C(F)(F)F)cc2)cc1)C(=O)O` [Example 15, (2S)-3-[4-(2-{bis[4-(Trifluoromethyl)benzyl]amino}-2-oxoethoxy)phenyl]-2-ethoxypropanoic acid], for which, on human PPARα, the EC50 came to 3 nM. The “ratio EC50 (PPARγ):EC50 (PPARα)” value in the experiment with PPARγ is above 900.
